pIC50, pKi: −log10 of the molar value. Entries after “also recorded” stand apart in the source; their conditions may differ.
Tests used:
[1] = biological target: sphingosine kinase-1/SphK1 (Homo sapiens, UniProt Q9NYA1); settings: cited from earlier work
[2] = test system: bleomycin-challenged C57BL/6J mice; assay: Bleomycin-induced pulmonary fibrosis in mice treated with PF-543; format: in vivo; settings: PF-543 i.p. 5 mg/kg twice per week
Method: In Vivo Studies. In this analysis, 8 week-old, wild-type, C57BL/6J mice were treated with 1.5 U/kg bleomycin.

[3] = test system: human lung fibroblasts; assay: TGF-β-mediated differentiation of human lung fibroblasts, PF-543; format: cell-based
From the text: TGF-β-induced fibroblast differentiation was characterized to analyze the expression of fibronectin and α-SMA. […] Additionally, compared with the control mouse lung fibroblast (from wild-type mice), TGF-β-induced fibroblast differentiation and expression of YAP1 were dramatically lower in the lung fibroblast isolated from SphK1^−/− mice. Accordingly, selective inhibition of SphK1 is useful in the prevention and treatment of bleomycin-induced pulmonary fibrosis.

[4] = test system: adult mice exposed to oxygen (75%); assay: Hyperoxia-induced lung injury in adult mice; format: in vivo; settings: 5 mg/kg/d PF-543 x 2 days prior to oxygen (75%)
[5] = test system: newborn mice exposed to hyperoxia (75%); assay: Hyperoxia-induced lung injury in newborn mice; format: in vivo; settings: PF-543 20 mg/kg/day
From the text: Therefore, PF-543 protected the lungs of the newborn mice from oxygen injury.

[6] = test system: HLMVECs; assay: Hyperoxia-induced S1P generation, p47phox activation and ROS generation in HLMVECs, PF-543; format: cell-based, human
From the text: HLMVECs were transfected with p47-roGFP prior to exposure to hyperoxia.

[7] = test system: S1P receptors; settings: cited from earlier work
[8] = cited from earlier work
[9] = test system: rats exposed to hypoxia; settings: SKI-II 10 mg/kg intraperitoneally, once every other day for 3.5 weeks; vs vehicle; cited from earlier work
[10] = test system: human lung microvascular endothelial cells (HLMVECs); settings: SKI-II, cited from earlier work
[11] = test system: bleomycin-challenged mice; settings: SKI-II eight days post-bleomycin challenge; cited from earlier work
[12] = test system: human lung fibroblasts; settings: SKI-II; cited from earlier work
[13] = test system: irradiated C57B1/6 mice; settings: 20 Gy thoracic irradiation, cited from earlier work
[14] = PF-543 1-5 μM, 1 hour pretreatment, TGF-β 5 ng/ml, 48 hours
[15] = 0.375 mg/kg myriocin p.o. 3x/week, 0.375 mg/kg

sphingosine kinase-1/SphK1, sequence (Q9NYA1 whole entry): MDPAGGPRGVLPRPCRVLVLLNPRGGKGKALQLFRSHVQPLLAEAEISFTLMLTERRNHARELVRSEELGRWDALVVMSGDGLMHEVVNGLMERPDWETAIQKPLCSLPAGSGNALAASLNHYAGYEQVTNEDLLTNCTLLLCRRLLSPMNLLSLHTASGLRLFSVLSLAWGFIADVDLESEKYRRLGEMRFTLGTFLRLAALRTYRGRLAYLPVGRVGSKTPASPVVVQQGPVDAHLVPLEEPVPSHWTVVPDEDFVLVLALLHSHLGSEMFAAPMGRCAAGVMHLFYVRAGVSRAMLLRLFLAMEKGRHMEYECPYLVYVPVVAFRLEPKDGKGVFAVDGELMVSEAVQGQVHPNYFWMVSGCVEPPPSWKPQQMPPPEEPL

CCCCCCCCCCCCCC#CC(=O)C1COC(C)(C)N1C(=O)OC(C)(C)C (stereo not shown) [SKI 5C]
pIC50 [1]: 5.48

CCCCCCCCCCCCc1ccc(NC(=O)C2(C(=N)N)CC2)cc1 [Compound 2]
pKi [1]: 6.52 | selectivity for SphK1 over SphK2 [1]: 40 fold

Cc1cc(CS(=O)(=O)c2ccccc2)cc(OCc2ccc(CN3CCC[C@@H]3CO)cc2)c1 [PF-543, [(2R)-1-[[4-[[3-(benzenesulfonylmethyl)-5-methylphenoxy]methyl]phenyl]methyl]pyrrolidin-2-yl] methanol]
protection against lung injury and pulmonary fibrosis ([2]; 1.5 U/kg bleomycin, day 7 to 21 post-bleomycin, 5 mg/kg): ameliorates; also recorded: partly protected | TGF-β levels in bronchoalveolar lavage (BAL) fluids ([2]; day 7 to 21 post-bleomycin): decreased | expression of α-SMA and fibronectin in lung tissues ([2]; day 7 to 21 post-bleomycin): decreased | total collagen deposition ([2]; day 7 to 21 post-bleomycin, vs bleomycin without PF-543): decreased | Ashcroft's score ([2]; day 21 to 42 post-bleomycin): decrease | collagen deposition ([2]; day 21 to 42 post-bleomycin): decrease | resolution of pulmonary fibrosis ([2]; day 21 to 42 post-bleomycin): enhanced resolution | TGF-β-induced expression of fibronectin and α-SMA [3, 14]: decreased; also recorded: dramatically inhibited | TGF-β-mediated fibroblast differentiation to myofibroblasts [3, 14]: attenuated; also recorded: dramatically inhibited | TGF-β-induced expression of YAP1 ([3]; PF-543 pretreatment, TGF-β): attenuated; also recorded: dramatically inhibited | BAL fluid total protein concentration [4]: decreases; also recorded: reduced | BAL inflammatory cell infiltrate (WBC count) [4]: decreases; also recorded: reduced | hyperoxia-induced lung injury [4]: attenuated | lung inflammatory fluid infiltration (lung histology) [4]: reduced | lung structure [5]: well preserved | attenuation of hyperoxia-mediated [32P]S1P generation [6]: > 80% | hyperoxia-induced ROS generation [6]: attenuates; also recorded: inhibited | exogenous S1P-mediated translocation of p47phox to cell periphery / activation ([6]; exogenous S1P instead of hyperoxia): not affected; also recorded: did not affect | hyperoxia-induced aggregation and stimulation of p47phox biosensor protein (p47-roGFP) ([6]; live cell imaging, HLMVECs transfected with p47-roGFP): suppressed | hyperoxia-induced p47phox translocation to cell periphery / activation of p47phox ([6]; pre-treated with PF-543): inhibited; also recorded: attenuated | affinity toward S1P receptors [7]: does not exhibit any affinity | cell permeability [8]: cell-permeable

CCCCCCCCCCCCc1ccc(C(=O)NC2(C(=N)N)CC2)cc1 [Compound 1]
selectivity for SphK1 over SphK2 [1]: 5 fold

Oc1ccc(Nc2nc(-c3ccc(Cl)cc3)cs2)cc1 [SKI-II, 4-[[4-(4-chlorophenyl)-2-thiazolyl]amino]-phenol]
development of HPH (RVSP, RVH, pulmonary vascular remodeling) [9]: prevents | ROS production under hyperoxia (DCFDA fluorescence) ([10]; 24 hours before hyperoxia (95% O2) for 3 hours): blocked | hyperoxia-induced S1P generation [10]: attenuates | bleomycin-induced mortality [11]: reduces | bleomycin-induced pulmonary fibrosis [11]: reduces | S1P generation and TGF-β-mediated signal transduction [12]: attenuates

N=C(N)C1(C(=O)NCCCCCCCCCCOCC2CCCCC2)CC1 [Compound 4]
selectivity for SphK1 over SphK2 [1]: 470 fold

CCCCCCC(=O)CCCCCC/C=C/C[C@@H](O)[C@H](O)[C@@](N)(CO)C(=O)O [myriocin]
radiation-induced pulmonary fibrosis (onset of RIF) [13, 15]: decreases; also recorded: delays | radiation-induced pulmonary inflammation [13, 15]: decreases; also recorded: reduces | animal lifespan (survival) ([13]; 0.375 mg/kg myriocin p.o. 3x/week): increased | SphK2 mRNA levels and protein expression ([13]; myriocin): Neither parameter is affected | expression of markers of fibrogenesis (collagen, α-SMA) in the lung ([13]; myriocin): decreased | radiation-increased SphK1 mRNA levels and SphK1 protein expression ([13]; myriocin): decreased | radiation-induced increase in total SphK activity in lung tissue ([13]; myriocin): hinder; also recorded: inhibition

N=C(N)[C@@H]1CCCN1C(=O)c1ccc(-c2nc(-c3cccc(CCC4CCCCC4)c3)co2)cc1 [Compound 5]
selectivity for SphK1 over SphK2 [1]: 180 fold

CCCCCCCCCCCCCCC[C@@H](O)C(C)N (stereo partly shown) [Compound 55-21]
pIC50 [1]: 5.15 | selectivity for SphK1 over SphK2 [1]: ~108 fold

From US11026918B2, “Method of preventing or treating a pulmonary disease or condition” (THE BOARD OF TRUSTEES OF THE UNIVERSITY OF ILLINOIS, priority 2014, dated 2021)
